Tests used:
Assay in all cases: relative viability (nuclei count vs DMSO), 5 days (fraction); higher = more cells survive
[1] = tested on: LCLC-97TM1
Outline: (§1)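 Lung cancer cell lines in 1536-well plates were dosed by pin tool the day after seeding, either with one drug alone or with a fixed anchor-drug dose plus five library-drug doses (not always all listed) in √10 steps. After 5 days, cells were fixed and their nuclei stained in one step (final 0.05% Triton X-100, 1% formaldehyde, 1 ug/ml Hoechst), then counted on 4× images. Relative viability is the nuclei count in treated wells divided by that in vehicle wells. Values are medians of duplicate plates.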

[2] = tested on: NCI-H2126
Outline: as §1

[3] = tested on: NCI-H1915
Outline: as §1

[4] = tested on: LC-2-ad
Outline: as §1

[5] = tested on: NCI-H2347
Outline: as §1

[6] = tested on: NCI-H1666
Outline: as §1

[7] = tested on: EPLC-272H
Outline: as §1

[8] = tested on: PC-14
Outline: as §1

[9] = tested on: NCI-H2405
Outline: as §1

[10] = tested on: ChaGo-K-1
Outline: as §1

[11] = tested on: RERF-LC-KJ
Outline: as §1

[12] = tested on: HCC-78
Outline: as §1

[13] = tested on: NCI-H647
Outline: as §1

[14] = tested on: NCI-H650
Outline: as §1

[15] = tested on: H3255
Outline: as §1

[16] = tested on: COR-L 105
Outline: as §1

[17] = tested on: NCI-H2087
Outline: as §1

[18] = tested on: 201T
Outline: as §1

[19] = tested on: NCI-H520
Outline: as §1

[20] = tested on: HCC-827
Outline: as §1

[21] = tested on: NCI-H322M
Outline: as §1

[22] = tested on: NCI-H661
Outline: as §1

[23] = tested on: NCI-H23
Outline: as §1

NC(=O)Nc1cc(-c2cccc(F)c2)sc1C(=O)N[C@H]1CCCNC1 [AZD7762] + COc1cc2c(Oc3ccc(NC(=O)C4(C(=O)Nc5ccc(F)cc5)CC4)cc3F)ccnc2cc1OCCCN1CCOCC1 [Foretinib] (partner 0.25 µM)
relative viability ([1]; first compound 0.01 µM): 0.891 | relative viability ([1]; first compound 0.03162 µM): 0.88 | relative viability ([1]; first compound 0.1 µM): 1.02 | relative viability ([1]; first compound 0.3162 µM): 0.95 | relative viability ([1]; first compound 1 µM): 0.948 | relative viability ([2]; first compound 0.01 µM): 1.23 | relative viability ([2]; first compound 0.03162 µM): 1.19 | relative viability ([2]; first compound 0.1 µM): 1.2 | relative viability ([2]; first compound 0.3162 µM): 1.28 | relative viability ([2]; first compound 1 µM): 1.26 | relative viability ([3]; first compound 0.01 µM): 1.18 | relative viability ([3]; first compound 0.03162 µM): 1.08 | relative viability ([3]; first compound 0.1 µM): 1.09 | relative viability ([3]; first compound 0.3162 µM): 1.04 | relative viability ([3]; first compound 1 µM): 0.981 | relative viability ([4]; first compound 0.01 µM): 1.15 | relative viability ([4]; first compound 0.03162 µM): 1.09 | relative viability ([4]; first compound 0.1 µM): 1.07 | relative viability ([4]; first compound 0.3162 µM): 1.18 | relative viability ([4]; first compound 1 µM): 0.756 | relative viability ([5]; first compound 0.01 µM): 1.55 | relative viability ([5]; first compound 0.03162 µM): 0.791 | relative viability ([5]; first compound 0.1 µM): 0.767 | relative viability ([5]; first compound 0.3162 µM): 0.616 | relative viability ([5]; first compound 1 µM): 0.51 | relative viability ([6]; first compound 0.01 µM): 1.03 | relative viability ([6]; first compound 0.03162 µM): 1.07 | relative viability ([6]; first compound 0.1 µM): 1.14 | relative viability ([6]; first compound 0.3162 µM): 1.12 | relative viability ([6]; first compound 1 µM): 0.849 | relative viability ([7]; first compound 0.01 µM): 0.676 | relative viability ([7]; first compound 0.03162 µM): 0.654 | relative viability ([7]; first compound 0.1 µM): 0.654 | relative viability ([7]; first compound 0.3162 µM): 0.615 | relative viability ([7]; first compound 1 µM): 0.256 | relative viability ([8]; first compound 0.01 µM): 1.04 | relative viability ([8]; first compound 0.03162 µM): 0.927 | relative viability ([8]; first compound 0.1 µM): 0.973 | relative viability ([8]; first compound 0.3162 µM): 0.885 | relative viability ([8]; first compound 1 µM): 0.361 | relative viability ([9]; first compound 0.01 µM): 1.13 | relative viability ([9]; first compound 0.03162 µM): 1.07 | relative viability ([9]; first compound 0.1 µM): 1.05 | relative viability ([9]; first compound 0.3162 µM): 1.03 | relative viability ([9]; first compound 1 µM): 0.67 | relative viability ([10]; first compound 0.01 µM): 0.924 | relative viability ([10]; first compound 0.03162 µM): 0.937 | relative viability ([10]; first compound 0.1 µM): 1.02 | relative viability ([10]; first compound 0.3162 µM): 0.899 | relative viability ([10]; first compound 1 µM): 0.976 | relative viability ([11]; first compound 0.01 µM): 0.882 | relative viability ([11]; first compound 0.03162 µM): 0.891 | relative viability ([11]; first compound 0.1 µM): 0.965 | relative viability ([11]; first compound 0.3162 µM): 0.944 | relative viability ([11]; first compound 1 µM): 0.97 | relative viability ([12]; first compound 0.01 µM): 0.619 | relative viability ([12]; first compound 0.03162 µM): 0.611 | relative viability ([12]; first compound 0.1 µM): 0.589 | relative viability ([12]; first compound 0.3162 µM): 0.682 | relative viability ([12]; first compound 1 µM): 0.578 | relative viability ([13]; first compound 0.01 µM): 1.23 | relative viability ([13]; first compound 0.03162 µM): 1.32 | relative viability ([13]; first compound 0.1 µM): 1.23 | relative viability ([13]; first compound 0.3162 µM): 1.19 | relative viability ([13]; first compound 1 µM): 0.326 | relative viability ([14]; first compound 0.01 µM): 1.13 | relative viability ([14]; first compound 0.03162 µM): 0.991 | relative viability ([14]; first compound 0.1 µM): 1.03 | relative viability ([14]; first compound 0.3162 µM): 1.03 | relative viability ([14]; first compound 1 µM): 1.05 | relative viability ([15]; first compound 0.01 µM): 1.12 | relative viability ([15]; first compound 0.03162 µM): 0.875 | relative viability ([15]; first compound 0.1 µM): 0.972 | relative viability ([15]; first compound 0.3162 µM): 0.89 | relative viability ([15]; first compound 1 µM): 0.859 | relative viability ([16]; first compound 0.01 µM): 1.25 | relative viability ([16]; first compound 0.03162 µM): 1.01 | relative viability ([16]; first compound 0.1 µM): 1.01 | relative viability ([16]; first compound 0.3162 µM): 1.09 | relative viability ([16]; first compound 1 µM): 0.643 | relative viability ([17]; first compound 0.01 µM): 1.28 | relative viability ([17]; first compound 0.03162 µM): 1.12 | relative viability ([17]; first compound 0.1 µM): 1.34 | relative viability ([17]; first compound 0.3162 µM): 1.32 | relative viability ([17]; first compound 1 µM): 1.29 | relative viability ([18]; first compound 0.01 µM): 1.17 | relative viability ([18]; first compound 0.03162 µM): 1.26 | relative viability ([18]; first compound 0.1 µM): 1.11 | relative viability ([18]; first compound 0.3162 µM): 0.961 | relative viability ([18]; first compound 1 µM): 0.279 | relative viability ([19]; first compound 0.01 µM): 0.989 | relative viability ([19]; first compound 0.03162 µM): 0.826 | relative viability ([19]; first compound 0.1 µM): 0.803 | relative viability ([19]; first compound 0.3162 µM): 0.518 | relative viability ([19]; first compound 1 µM): 0.351 | relative viability ([20]; first compound 0.01 µM): 0.975 | relative viability ([20]; first compound 0.03162 µM): 1.06 | relative viability ([20]; first compound 0.1 µM): 1.02 | relative viability ([20]; first compound 0.3162 µM): 1.08 | relative viability ([20]; first compound 1 µM): 0.853 | relative viability ([21]; first compound 0.01 µM): 0.979 | relative viability ([21]; first compound 0.03162 µM): 1.09 | relative viability ([21]; first compound 0.1 µM): 1.09 | relative viability ([21]; first compound 0.3162 µM): 0.601 | relative viability ([21]; first compound 1 µM): 0.315 | relative viability ([22]; first compound 0.01 µM): 1.08 | relative viability ([22]; first compound 0.03162 µM): 1.1 | relative viability ([22]; first compound 0.1 µM): 1.12 | relative viability ([22]; first compound 0.3162 µM): 1.03 | relative viability ([22]; first compound 1 µM): 0.598 | relative viability ([23]; first compound 0.01 µM): 0.886 | relative viability ([23]; first compound 0.03162 µM): 1.09 | relative viability ([23]; first compound 0.1 µM): 0.976 | relative viability ([23]; first compound 0.3162 µM): 1.11 | relative viability ([23]; first compound 1 µM): 0.366
